US20220143183A1, “PHOTOSWITCHABLE PROTACS AND SYNTHESIS AND USES THEREOF” (New York University, priority 2019, published 2022)

Assays:
[1] = UV-Vis photoswitching and photostationary states (PSS); type: physicochemical
Excerpt: The photoswitching and thermal relaxation properties of one of the lead compounds, PHOTAC-I-3, is shown in FIG. 3A-E. The optimal wavelength to switch to the cis isomer is 390 nm but similar photostationary states (PSS) can be obtained between 380 and 400 nm (FIG. 3C). At 390 nm a PSS of >90% cis could be obtained. Rapid cis to trans isomerization could be achieved by irradiation with wavelengths >450 nm, achieving PSS of ca >70% trans (FIG. 3C). […] Multiple cycles of photochemical isomerization are possible, in keeping with the fatigue-resistance of azobenzene photoswitches (FIG. 3E).
UV-Vis spectrometry was performed on a Varian Cary 60 UV-Visible Spectrophotometer using disposable BRAND UV-Cuvette Disposable Spectrophotometer/Photometer Ultra-Micro Cuvettes, BrandTech (10 mm light path), an Agilent Technologies PCB 1500 Water Peltier system for temperature control and samples were irradiated with a cairn research Optoscan Monochromator with Optosource High Intensity Arc Lamp equipped with a 75 W UXL-S50A lamp from USHIO Inc. Japan and set to 15 nm full width at half maximum.

BRD3 = molecular target: T1, BRD3 (Homo sapiens, UniProt Q15059); experiment: Western blot of BRD3 levels in RS4;11 cells; type: cell-based
T1 construct: endogenous in cells; host or cells: RS4;11 (ATCC CRL-1873)
T1 sequence (Q15059 whole entry): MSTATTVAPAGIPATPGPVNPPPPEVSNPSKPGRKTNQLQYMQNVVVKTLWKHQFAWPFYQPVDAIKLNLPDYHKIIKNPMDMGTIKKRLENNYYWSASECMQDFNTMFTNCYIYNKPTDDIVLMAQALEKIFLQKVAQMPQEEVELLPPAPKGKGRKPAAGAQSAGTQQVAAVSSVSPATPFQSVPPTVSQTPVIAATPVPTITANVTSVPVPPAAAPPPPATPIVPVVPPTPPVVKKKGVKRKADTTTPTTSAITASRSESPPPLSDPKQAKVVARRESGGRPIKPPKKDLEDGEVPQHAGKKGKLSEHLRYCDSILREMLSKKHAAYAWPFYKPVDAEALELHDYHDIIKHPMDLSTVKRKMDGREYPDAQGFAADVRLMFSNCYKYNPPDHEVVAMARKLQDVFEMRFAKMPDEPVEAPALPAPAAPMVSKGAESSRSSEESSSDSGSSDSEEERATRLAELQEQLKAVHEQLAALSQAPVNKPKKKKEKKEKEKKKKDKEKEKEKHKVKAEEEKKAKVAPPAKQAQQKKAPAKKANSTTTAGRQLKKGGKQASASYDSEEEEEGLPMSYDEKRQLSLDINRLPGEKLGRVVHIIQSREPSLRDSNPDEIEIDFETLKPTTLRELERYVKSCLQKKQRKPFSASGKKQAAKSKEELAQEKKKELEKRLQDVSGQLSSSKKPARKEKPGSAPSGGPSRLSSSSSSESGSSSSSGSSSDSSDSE
Procedure: (§1) Next, the light dependence of targeted protein degradation was analyzed in RS4;11 cells by western blot analysis of the BET proteins BRD2-4 (FIG. 5). To this end, cells were treated with increasing concentrations of our lead compound, PHOTAC-I-3, for 4 h and pulse-irradiated with 390 nm light (100 ms every 10 s). […] The cereblon-dependent degradation was confirmed by a competition experiment (FIG. 5E), and further validated by siRNA knockdown of cereblon (FIG. 13).
(§2) Cells were incubated with different concentrations of selected compounds. They were placed in a light-proof box and preirradiated for 1 min at 390 nm followed by 100 ms pulses every 10 s or were kept in the dark for 4 h.
(§3) Cultured cells were collected by centrifugation and washed twice with cold PBS. The supernatant was removed and each cell pellet was lysed in 100 μL NP40-Cell-Lysis Buffer+0.1% SDS+1 mM PMSF+ protease inhibitor cocktail (Sigma Aldrich) for 30 min on ice, with vortexing at 10-minute intervals. Afterwards, cells were centrifuged at 13.000 rpm for 10 min at 4° C. Samples were stored on ice and the supernatant was collected for protein concentration determination using a Thermofisher Scientific Pierce™ Coomassie Plus (Bradford) Assay Kit.
The samples were diluted each with 5 μL Laemmli sample buffer Invitrogen (NuPAGE LDS Sample Buffer 4×) and 1 μL DTT, heated at 95° C. for 5 min. […]

BRD2 = molecular target: T2, BRD2 (Homo sapiens, UniProt P25440); experiment: Western blot of BRD2 levels in RS4;11 cells; type: cell-based
T2 construct: endogenous in cells; host or cells: RS4;11 (ATCC CRL-1873)
T2 sequence (P25440 whole entry): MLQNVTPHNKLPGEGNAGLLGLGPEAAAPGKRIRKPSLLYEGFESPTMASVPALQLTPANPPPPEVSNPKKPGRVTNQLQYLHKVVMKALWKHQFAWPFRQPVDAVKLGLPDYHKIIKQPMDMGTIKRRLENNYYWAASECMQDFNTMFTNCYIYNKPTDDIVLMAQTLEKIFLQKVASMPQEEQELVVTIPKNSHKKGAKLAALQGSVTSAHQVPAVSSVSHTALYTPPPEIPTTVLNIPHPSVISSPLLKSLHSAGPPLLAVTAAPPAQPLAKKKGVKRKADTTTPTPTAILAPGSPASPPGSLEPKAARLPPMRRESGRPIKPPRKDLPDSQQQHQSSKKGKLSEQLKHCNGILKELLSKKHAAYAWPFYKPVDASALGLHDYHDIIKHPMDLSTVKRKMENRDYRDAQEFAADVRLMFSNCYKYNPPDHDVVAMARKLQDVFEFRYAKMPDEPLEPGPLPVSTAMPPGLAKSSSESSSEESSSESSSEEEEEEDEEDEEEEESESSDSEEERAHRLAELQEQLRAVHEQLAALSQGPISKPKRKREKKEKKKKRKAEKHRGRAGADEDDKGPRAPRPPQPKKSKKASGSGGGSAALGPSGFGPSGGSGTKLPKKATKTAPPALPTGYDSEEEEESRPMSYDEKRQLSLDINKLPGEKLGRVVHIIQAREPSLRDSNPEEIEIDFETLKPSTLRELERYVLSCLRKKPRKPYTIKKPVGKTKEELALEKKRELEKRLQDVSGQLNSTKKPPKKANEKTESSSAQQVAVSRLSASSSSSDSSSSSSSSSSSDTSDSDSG
Procedure: as §1
One of the principal advantages of photoswitches over caged compounds is their reversibility.
as §2, §3
The samples were diluted each with 5 μL Laemmli sample buffer Invitrogen (NuPAGE LDS Sample Buffer 4×) and 1 μL DTT, heated at 95° C. for 5 min. Respectively 20 μL of each sample was loaded in a lane of a Bio-Rad Mini-PROTEAN TGX precast Gel, 4-20%, used with tris-glycine SDS Running buffer. The gel ran 5 min at 50 V, then 35 min at 140 V. Next step was the electrotransfer to a polyvinylidene difluoride (PVDF) membrane which was carried out using an iBlot™ 2 Dry Blotting System set to the standard program. After the transfer, the membrane was washed with 25 mL TB ST for 5 min and subsequent incubated in 25 mL of blocking buffer (1×TBST+5% nonfat dry milk, Blotto, Santa Cruz Biotechnology) for 1 h at room temperature. […]

BRD4 = BRD4 (Homo sapiens, UniProt O60885); experiment: Immunoblot of BRD4 degradation in MB-MDA-468 cells; type: cell-based; set-up: Immunoblot analysis after treatment of MB-MDA-231 cells with PHOTAC-I-3 for 18 h at different concentrations; endogenous in cells; host or cells: MB-MDA-231 (A10) and MB-MDA-468 (A11) (so in the source); settings: 18 h, 390 nm pulses vs dark
Procedure: FIG. 10 depicts an immunoblot analysis of PHOTAC-I-3 A) Immunoblot analysis after treatment of MB-MDA-231 cells with PHOTAC-I-3 for 18 h at different concentrations. Cells were either irradiated with 100 ms pulses of 390 nm light every 10 s (left) or kept the dark (right). B) Immunoblot analysis after treatment of MB-MDA-468 cells with PHOTAC-I-3 for 18 h at different concentrations. Cells were either irradiated with 100 ms pulses of 390 nm light every 10 s (left) or kept the dark (right). (MWM, molecular weight marker). C) Immunoblot of BRD4 degradation in RS4;11 cells, promoted by PHOTAC-I-3 (300 nM) after 1 minute of irradiation (100 ms every 10 s), highlighting sustained degradation at the applied dosage.
Photoactivatable degraders and inhibitors of BRD4, c-MYC levels were also affected.

For `COc1cc(/N=N/c2cccc3c2CN(C2CCC(=O)NC2=O)C3=O)cc(OC)c1OCC(=O)NCCCCNC(=O)C[C@@H]1N=C(c2ccc(Cl)cc2)c2c(sc(C)c2C)-n2c(C)nnc21` (stereo partly drawn) [PHOTAC-I-3, 2-((S)-4-(4-chlorophenyl)-2,3,9-trimethyl-6H-thieno[3,2-f][1,2,4]triazolo[4,3-a][1,4]diazepin-6-yl)-N-(4-(2-(4-((E)-(2-(2,6-dioxopiperidin-3-yl)-1-oxoisoindolin-4-yl)diazenyl)-2,6-dimethoxyphenoxy)acetamido)butyl)acetamide], which “optimal wavelength to switch to the cis isomer” value [1] is on record?
The value was 390 nm.

And the “photostationary state (PSS), cis fraction” value ([1]; at 390 nm)?
The value was over 90%.

What about the “photostationary state (PSS), trans fraction” value ([1]; irradiation with wavelengths >450 nm) of the same compound?
The value was over 70%.

And the “exposure time after which BRD3 is largely absent” value (BRD3; 1 μM, 390 nm pulse irradiation)?
The value was 1.5 h.

What about the BRD3 levels (BRD3; 4 h, irradiated with violet light (390 nm)) of the same compound?
The BRD3 levels was “significantly reduced”.

What about the “exposure time after which BRD2 is largely absent” value (BRD2; 1 μM, 390 nm pulse irradiation) of the same compound?
Its value is 1.5 h.

And the “cellular BRD2 levels in rescue experiment” value (BRD2; 1 min 390 nm, then pulse irradiated with 525 nm)?
Its value is “initially decreased but, subsequently, recovered faster than when left in the dark”.

What about the BRD2 degradation (BRD2; 4 h, 390 nm, compared with BRD3 and BRD4) of the same compound?
Its BRD2 degradation is “degraded to a lesser extent and within a narrower concentration range”.

What about the BRD4 degradation (BRD4) of the same compound?
Its BRD4 degradation is “light-dependent degradation of BRD4”.
